# Structures can show the parent of a compound that is named as a salt.
row,SMILES,melting point
1,"CC(C)N1CCC(N(C)C(=O)c2ccc(-n3cc4ccccc4n3)cc2)CC1 (as salt: hydrochloride) [Example 69, 4-(2H-indazol-2-yl)-N-(1-isopropylpiperidin-4-yl)-N-methylbenzamide]",166 to 168 °C
2,"CN(C(=O)c1ccc(-n2cc3ccccc3n2)cc1)C1CCN(C2CCC2)CC1 (as salt: hydrochloride) [Example 70, N-(1-cyclobutylpiperidin-4-yl)-4-(2H-indazol-2-yl)-N-methylbenzamide]",273 to 275 °C
3,"CC(C)N1CCC(N(C)C(=O)c2ccc(-n3ncc4ccccc43)cc2)CC1 (as salt: hydrochloride) [Example 72, 4-(1H-indazol-1-yl)-N-(1-isopropylpiperidin-4-yl)-N-methylbenzamide]",151 to 162 °C
4,"CN(C(=O)c1ccc(-n2ncc3ccccc32)cc1)C1CCN(C2CCCC2)CC1 (as salt: hydrochloride) [Example 74, N-(1-cyclopentylpiperidin-4-yl)-4-(1H-indazol-1-yl)-N-methylbenzamide]",240 °C (dec.)
5,"CN(C(=O)c1ccc(Cn2ncc3ccccc32)cc1)[C@@H]1CCNC1 (as salt: hydrochloride) [Example 75, (R)-4-((1H-indazol-1-yl)methyl)-N-methyl-N-(pyrrolidin-3yl)benzamide]",255 to 256 °C
6,"CN(C(=O)c1ccc(Cn2ncc3ccccc32)cc1)[C@@H]1CCN(C2CCC2)C1 (as salt: hydrochloride) [Example 77, N-[(3R)-1-cyclobutylpyrrolidin-3-yl]-4-(1H-indazol-1-ylmethyl)-N-methylbenzamide]",105 to 106 °C
7,"CN(C(=O)c1ccc(Cn2ncc3ccccc32)cc1)[C@@H]1CCN(C2CCCC2)C1 (as salt: hydrochloride) [Example 78, N-[(3R)-1-cyclopentylpyrrolidin-3-yl]-4-(1H-indazol-1-ylmethyl)-N-methylbenzamide]",98 to 99 °C
8,"CN(C(=O)c1ccc(Cn2ncc3ccccc32)cc1)C1CCN(C2CCC2)CC1 (as salt: hydrochloride) [Example 80, N-(1-cyclobutylpiperidin-4-yl)-4-(1H-indazol-1-ylmethyl)-N-methylbenzamide]",254 to 256 °C

# Now from value to compound:
row,melting point,SMILES
1,283 to 285 °C,"CN(C(=O)c1ccc(-n2cc3ccccc3n2)cc1)C1CCN(C2CCCC2)CC1 (as salt: hydrochloride) [Example 71, N-(1-cyclopentylpiperidin-4-yl)-4-(2H-indazol-2-yl)-N-methylbenzamide]"
2,160 °C (dec.),"CN(C(=O)c1ccc(-n2ncc3ccccc32)cc1)C1CCN(C2CCC2)CC1 (as salt: hydrochloride) [Example 73, N-(1-cyclobutylpiperidin-4-yl)-4-(1H-indazol-1-yl)-N-methylbenzamide]"
3,156 to 158 °C,"CC(C)N1CC[C@@H](N(C)C(=O)c2ccc(Cn3ncc4ccccc43)cc2)C1 (as salt: hydrochloride) [Example 76, 4-(1H-indazol-1-ylmethyl)-N-[(3R)-1-isopropylpyrrolidin-3-yl]-N-methylbenzamide]"
4,197 to 199 °C,"CC(C)N1CCC(N(C)C(=O)c2ccc(Cn3ncc4ccccc43)cc2)CC1 (as salt: hydrochloride) [Example 79, 4-(1H-indazol-1-ylmethyl)-N-(1-isopropylpiperidin-4-yl)-N-methylbenzamide]"
5,265 to 267 °C,"CN(C(=O)c1ccc(Cn2ncc3ccccc32)cc1)C1CCN(C2CCCC2)CC1 (as salt: hydrochloride) [Example 81, N-(1-cyclopentylpiperidin-4-yl)-4-(1H-indazol-1-ylmethyl)-N-methylbenzamide]"
6,285 to 286 °C,"CC(C)N1CCC(N(C)C(=O)c2ccc(-n3cccn3)cc2)CC1 (as salt: hydrochloride) [Example 85, N-(1-isopropylpiperidin-4-yl)-N-methyl-4-(1H-pyrazol-1-yl)benzamide]"
